Patent US20240018146A1, “COMPOSITIONS AND METHODS OF USING THE SAME FOR TREATMENT OF NEURODEGENERATIVE AND MITOCHONDRIAL DISEASE” (MITOKININ, INC., priority 2020, published 2024)
Read-outs that look alike come from different tables or passages of the source.

Key:
HeLa MKYP cells [1] = assay: Human mitophagy assay (HeLa mKeima assay, FACS); type: cell-based
Protocol: Briefly, HeLa MKYP cells were plated at 10,000 cells/well in 96 well plates along with compounds at various concentrations. Following 16 hrs of incubation, cells were treated with 1 uM FCCP/oligomycin for 6 hours, then analyzed via FACS for the presence of mitochondria in lysosomes (as determined by an emissions spectrum shift from the pH-sensitive mtKeima tag).
Briefly, HeLa cells expressing a mitophagy indicator (mtKeima) protein were treated with […] of FCCP and Oligomycin followed by the specified dose of compound, then analyzed by FACS to quantify the percentage of cells undergoing mitophagy.

HeLa MKYP cells [2] = assay: Cell death measured by DAPI staining, with 1 μM FCCP/oligomycin or no toxin (no FO); type: cell-based; conditions: for Max cell death at 25 μM compound, 1 uM FO (%) / Cell death at 25 μM (no FO) (%): 25 μM compound
Protocol: EP-0035985, EP-0037821, EP-0038098, and EP-0038099 in the presence of 1 μM FCCP/oligomycin or with no toxin (no FO) for 6 hrs. H2O2 treatment was performed as a control for cell death as measured by DAPI staining.
EP-0035985, EP-0038461, EP-0038463, and EP-0038503 in the presence of 1 μM FCCP/oligomycin or with no toxin (no FO) for 6.5 hrs. H2O2 treatment was performed as a control for cell death as measured by DAPI staining.
EP-0035985, EP-0038504, EP-0038508, and EP-0038521 in the presence of 1 μM FCCP/oligomycin or with no toxin (no FO) for 6.5 hrs. H2O2 treatment was performed as a control for cell death as measured by DAPI staining.
EP-0035985, EP-0038461, EP-0038463, EP-0038503, EP-0038504, EP-0038508, and EP-0038521 in the presence of 1 μM FCCP/oligomycin or with no toxin (no FO) for 6.5 hrs. H2O2 treatment was performed as a control for cell death as measured by DAPI staining.

[3] = Homo sapiens, HeLa, read-out: Mitophagy induction EC50
[4] = read-out: Mitophagy induction EC50
[5] = Homo sapiens, HeLa, HeLa mKeima assay, read-out: Mitophagy EC50 (HeLa mKeima assay)

Compound | EC50 (HeLa MKYP cells [1]; [3]) [µM] | Highest safe dose (cytotoxicity; no FO; safe means DAPI+ <20%) (HeLa MKYP cells [2]) [µM] | Max % death with 1 μM FO (HeLa MKYP cells [2]) [%] | EC50 (HeLa MKYP cells [1]; [4]) [µM] | EC50 (HeLa MKYP cells [1]; [5]) [µM] | Max cell death at 25 μM compound, 1 uM FO (%) (HeLa MKYP cells [2]) | Cell death at 25 μM (no FO) (%) (HeLa MKYP cells [2])
C[C@H]1CN([C@H]2COc3ccccc3[C@@H]2Nc2ncnc3[nH]c(C(F)(F)F)cc23)CCO1 [EP-0040979] | > 25 | 25.0 | 4.0 |  |  |  | 
c1ccc2c(c1)OC[C@H](C1CCOCC1)[C@H]2Nc1ncnc2[nH]c(C3CC3)cc12 [EP-0040728] | 9.4 | 25.0 | 3.7 |  |  |  | 
FC(F)(F)c1cc2c(N[C@H]3c4ccccc4CC[C@H]3OC3CCOCC3)ncnc2[nH]1 (single isomer, unassigned) [EP-0039733] | 9.33 | 25.0 | 3.1 |  |  |  | 
CC1(O)CN([C@@H]2COc3ccccc3[C@H]2Nc2ncnc3[nH]c(C(F)(F)F)cc23)C1 (single isomer, unassigned) [EP-0041264] | > 25 | 25.0 | 2.5 |  |  |  | 
FC(F)(F)c1cc2c(N[C@H]3c4ccccc4OC[C@H]3N3CCOCC3)ncnc2[nH]1 [EP-0040084] | 15.6 | 25.0 | 3.7 |  |  |  | 
COC[C@@H]1CCN(C2COc3ccccc3C2Nc2ncnc3[nH]c(C4CC4)cc23)C1 (single isomer, unassigned) [EP-0041515] |  | 25.0 | 5.6 | 5.06 |  |  | 
FC(F)(F)c1cc2c(N[C@@H]3c4ccccc4OC[C@H]3N3CCOCC3)ncnc2[nH]1 [EP-0040252] | 1.11 | 25.0 | 9.1 |  |  |  | 
FC1COCCC1[C@H]1COc2ccccc2[C@@H]1Nc1ncnc2[nH]c(C(F)(F)F)cc12 (single isomer, unassigned) [EP-0041324] |  | 25.0 | 10.4 | 12.3 |  |  | 
FC1COCCC1[C@H]1COc2ccccc2[C@@H]1Nc1ncnc2[nH]c(C(F)(F)F)cc12 (single isomer, unassigned) [EP-0041325] |  | 25.0 | 5.5 | 18.8 |  |  | 
N#Cc1cn([C@@H]2CCc3ccccc3[C@@H]2Nc2ncnc3[nH]c(C(F)(F)F)cc23)cn1 [EP-0039748] | 8.07 | 25.0 | 6.5 |  |  |  | 
Fc1cccc2c1CC[C@H](N1C[C@H]3COC[C@H]3C1)[C@H]2Nc1ncnc2[nH]c(C(F)(F)F)cc12 (single isomer, unassigned) [EP-0040505] | 13.5 | 25.0 | 14.3 |  |  |  | 
CC(C)(O)C1CN([C@H]2COc3ccccc3[C@@H]2Nc2ncnc3[nH]c(C(F)(F)F)cc23)C1 (single isomer, unassigned) [EP-0041490] | > 25 | 25.0 | 3.4 |  |  |  | 
OC[C@@H]1CCCN1[C@H]1CCc2ccccc2[C@@H]1Nc1ncnc2[nH]c(C(F)(F)F)cc12 (single isomer, unassigned) [EP-0039732] | > 25 | 25.0 | 6.2 |  |  |  | 
Fc1ccc2c(c1)CC[C@@H](N1CCOCC1)[C@@H]2Nc1ncnc2[nH]c(C3CC3)cc12 [EP-0039747] | 9.31 | 25.0 | 24.4 |  | 9.31 | 24.4 | 12.9
Fc1ccc2c(c1)OC[C@H](N1C[C@@H]3COC[C@H]3C1)[C@H]2Nc1ncnc2[nH]c(C(F)(F)F)cc12 (single isomer, unassigned) [EP-0040562] | 1.5 | 25.0 | 7.9 |  |  |  | 
COC[C@H]1CCN([C@H]2COc3ccccc3[C@@H]2Nc2ncnc3[nH]c(C(F)(F)F)cc23)C1 (single isomer, unassigned) [EP-0041174] |  | 25.0 | 4.6 | 15.3 |  |  | 
FC(F)(F)c1cc2c(N[C@H]3c4ccccc4OC[C@@H]3N3CCOCC3)ncnc2[nH]1 [EP-0040078] | 1.9 | 25.0 | 18.5 |  | 1.77 | 18 | 5.92
